Laboratory results as given in PMC6001375, “CLERK is a novel receptor kinase required for sensing of root-active CLE peptides in Arabidopsis” (Development (Cambridge, England), 2018).
“Also recorded” adds a separate entry of the source.

Tests used:
Arabidopsis root growth = test: Root growth response (CLE resistance/sensitivity) of wild type and mutant seedlings; type: in vivo, Arabidopsis thaliana; conditions: for Root growth response of clerk mutants: clerk mutants vs Col-0 (and bam3 for CLE45), n=13-25 (Fig. 2B), n=16-19 (Fig. 2A)
Source text: Arabidopsis thaliana Columbia-0 (Col-0) was used as the wild type for phenotypic analyses and is the background of all mutants investigated: ops-2 (SALK_139316); brx-2 ([Rodrigues et al., 2009]); bam3-2 (SALK_044433) ([DeYoung et al., 2006]); clerk-3 (SALK_066568); ops^E319K ([Rodriguez-Villalon et al., 2014]); makr5 ([Kang and Hardtke, 2016]); nik1 (SALK_017538C); nik2 (SALK_044363C); and sark (SALK_111290), clv2/rlp10-1 (GK-686A09) and crn-10 ([Hazak et al., 2017]). Seeds were surface sterilized, germinated and grown vertically under continuous light at 22°C on 0.5× Murashige and Skoog media supplemented with 1% agar and with or without 0.3% sucrose.
CLE peptides were obtained from a commercial supplier (Genscript), synthesized at >80% purity, diluted in water and used at final concentration as indicated. For root length measurements, plates were scanned at 600 dpi resolution and seedling root length was determined using the Simple Neurite Tracer plug-in ([Longair et al., 2011]) for Fiji software ([Schindelin et al., 2012]).
M2 mutagenized seeds ([Kalmbach et al., 2017]) were screened in tissue culture on media complemented with 10 nM CLE26 peptide. Seedlings with CLE26-resistant root growth were transferred to soil and the phenotype was confirmed in the M3 generation before backcrossing to Col-0 wild type. The causative mutation for CLE26 resistance was then determined by whole-genome sequencing of bulked segregants as described previously ([Kang and Hardtke, 2016]).

[1] = test system: CLERK ectodomain (CLERK-ECD); test: Isothermal titration calorimetry, CLERK ectodomain; type: binding, Arabidopsis thaliana; conditions: ITC, 25°C, 20 mM citrate (pH 5.0), 150 mM NaCl; 400 µM peptide into 30 µM CLERK-ECD
Description: Isolation of recombinant proteins and analytical gel filtrations were carried out as described previously ([Hazak et al., 2017]) with small adjustments. The coding sequences for BAM1-ECD (amino acids 20-637), BAM3-ECD (30-651), PXY-ECD (30-647), NIK1-ECD (32-248), NIK2-ECD (33-248), NIK3-ECD (26-238), CLERK-ECD (28-236) and At5G63710-ECD (51-224) were amplified from Arabidopsis thaliana cDNA using PfuX7 polymerase. All ECD-coding sequences were then cloned into a modified pFAST-BAC1 vector (Geneva Biotech) by GIBSON cloning, resulting in the addition of the azurocidin signal peptide sequence to the 5′-end, and of a 2×-STREP-9×HIS tag to the 3′-end of the ECD sequences. These plasmids, after being confirmed by sequencing, were transformed into Escherichia coli DH10MultiBac (Geneva Biotech) followed by the extraction of the resulting bacmids. Transfection of the bacmids into Spodoptera frugiperda Sf9 cells with Profectin (AB Vector) was carried out to produce and amplify the respective virus. Recombinant secreted expression of the proteins was carried out by addition of virus to Trichoplusia ni Tnao38 cells to reach a viral multiplicity of 1 and incubation of the cells for 3 days. […] Concentrations of the pure proteins were assessed by measuring their absorbance at 280 nm (NanoDrop Lite; Thermo Scientific) and subsequent correction with their respective extinction coefficient. […]

Row | Sequence | Root growth, 10 confirmed CLE26-resistant mutants (Arabidopsis root growth; 100 nM CLE26, vs Col-0 wild type, ANOVA, P<0.001, n=8-21) | Sensitivity of clerk plants carrying CLERK::CLERK-GFP (Arabidopsis root growth; Fig. 1E) | Root growth response, clerk T-DNA insertion mutant (SALK_066568) (Arabidopsis root growth; Fig. 1E, n=28-47) | Response of brx crn double mutants (Arabidopsis root growth; Fig. S4) | Requirement of CLERK for sensing in the root (Arabidopsis root growth; clerk mutants) | Root growth response of clerk mutants (Arabidopsis root growth) | Response of clerk brx and clerk ops double mutants (Arabidopsis root growth; n=2-25) | Response of combinations of clerk with bam3, makr5 or ops^E319K (Arabidopsis root growth; n=2-25) | CLE sensitivity of clerk mutants with transgenic CLERK wild-type copy (Arabidopsis root growth; original and T-DNA clerk mutants, Fig. 1E, n=28-47) | Sensing with SARK or NIK1 expressed under the CLERK promoter (Arabidopsis root growth; several independent transgenic lines, n=21-43) | Direct binding to CLERK ectodomain [1]
1 | RKVPRGPDPIHN [CLE26] | substantially resistant; also recorded: statistically significantly different when compared with Col-0 wild type | full sensitivity | strong CLE26 resistance | still CLE26 sensitive | CLERK is required for CLE26 sensing in the root | resistant | both clerk brx and clerk ops were CLE26 sensitive | additive CLE26 resistance | could be recovered | both SARK and NIK1 could replace the CLERK protein to sense CLE26 | no direct binding
2 | RRVRRGSDPIHN [CLE45] | – | – | – | – | – | resistant | – | – | – | – | no direct binding
